1 compound from patent US10905704B2, “Agents and methods using thereof for the prevention and treatment of stem cell muscle disorders” (ECOLE POLYTECHNIQUE FEDERALE DE LAUSANNE (EPFL), priority 2015, dated 2021) can be followed below.

The test concerns C2C12 cells. Nature of the test: Western blot of UPRmt, prohibitins and cell cycle proteins in TAP-treated C2C12 cells. The class given is cell-based, mouse. Particulars: 50 μg/ml TAP, FIG. 7. On the procedure: Western blotting. C2C12 cells were lysed in a buffer composed of 50 mM Tris, 150 mM KCl, EDTA 1 mM, NP40 1%, nicotinamide 5 mM, sodium butyrate 1 mM and protease inhibitors cocktail (Roche) at pH 7,4. Proteins were separated by SDS-PAGE and transferred onto nitrocellulose membranes. Blocking and antibody incubations were performed in 3% BSA. The following primary antibodies were used: anti-cleavage caspase 3 (Cell Signalling); Anti-γH2AX (Millipore); anti-β-actin (Sigma). All secondary antibodies were from Jackson Immunoresearch. Antibody detection reactions were developed by enhanced chemiluminescence (Advansta, Calif., USA) using x-ray films or imaged using the c300 imaging system (Azure Biosystems). The following primary antibodies were used: anti-HSP60 (Enzo Life Science); anti-PHB (Biolegend); anti-PHB2 (Santa Cruz); anti-CKD4 (Novus biologicals); anti-CCND1 (Santa Cruz); anti-CCND3 (Santa Cruz); anti-HSP90 (BD Biosciences); HSP70 (Abcam); anti-MT-CO1 (Bio legend); anti-ATP5A (Bio legend); anti-Grp78 (Abcam); and anti-CLPP (Sigma).
(In general: A western blot detects proteins with antibodies after separation by electrophoresis.)

Consider `CS(=O)(=O)c1ccc([C@@H](O)[C@@H](CO)NC(=O)C(Cl)Cl)cc1` [thiamphenicol], for which the UPRmt induction result is recorded as “UPR^mt induction”, the “cell cycle gene expression” value is recorded as “induced” and the prohibitins expression entry is “induced”.
